Data set [1] relates to LPS-induced TNFα release in human blood. Put plainly: LPS-induced TNFα release in human blood. The format is cell-based. The conditions noted are these: human blood diluted 1:5, LPS 10 μg/ml, 24 hours. From the text:
The stimulation of isolated leucocytes to cytokine release can take place in various ways. Lipopolysaccharides (LPSs) are a stimulus suitable for the investigation of TNFα release. LPS is a constituent of the bacterial cell walls and is released by killing the bacteria (antibiotics or immune system). LPS particularly stimulates the activity of the phagocytizing leucocytes (tissue macrophages, granulocytes, monocytes) and causes the infiltration of leucocytes from the blood stream into the affected tissue. A cytokine important for these mechanisms is TNFα, which is secreted in large amounts by the affected cells (the monocytes and macrophages are the main source) and initiates and maintains inflammation alongside other mediators.
For the investigation of the effect on LPS-induced TNFα release, human blood was obtained from various donors (inhibition of coagulation by means of citrate) and diluted 1:5 with RPMI 1640 cell culture medium. The test substances were added to the samples in various concentrations before the LPS challenge. […] After incubation of the test batches for 24 hours at 37° C. and under 5% CO2 in an incubator, the diluted blood was centrifuged and the TNFα concentration in the cell-free supernatant was measured by means of ELISA.

Data set [2] concerns LPS-induced pulmonary neutrophil infiltration. Briefly: LPS-induced pulmonary neutrophil infiltration in ferrets. The format is in vivo. The note with it: for inhibition of LPS-induced neutrophilia: powder with lactose, 2 hours before LPS. How it is done: The inhibition of lipopolysaccharide (LSP)-induced pulmonary neutrophil infiltration by the substance is investigated in an in vivo test on male ferrets (0.6-2 kg). The experimental animals are anaesthetized with pentobarbital sodium (40 mg/kg of body weight i.p.), placed individually into a closed nebulization box of 5 l capacity and exposed to an ultrasonically nebulized aerosol of 0.01% strength LPS (lipopolysaccharide) solution (additionally 0.1% hydroxylamine in PBS) for 10 minutes. The aerosol is generated by a nebulizer driven with compressed air (0.2 Mpa). Control animals are treated with an aerosol of physiological saline solution. The animals are observed during the entire process and removed from the nebulization box after admission of fresh air. On inhalation, nebulized LPS immediately induces inflammation of the airways, which is characterized by a massive infiltration of neutrophilic granulocytes into the lungs of the experimental animals. The neutrophilia achieves its maximum 4 to 6 hours after LPS exposure. In order to be able to measure the number of infiltrated neutrophilic granulocytes, the animals are anaesthetized with an overdose of ethylurethane (1.5 g/kg of body weight i.p.) 6 hours after LPS provocation and a bronchoalveolar lavage (BAL) is carried out using 2×10 ml of physiological saline solution. The number of cells in the pooled original BAL fluid (100 μl) are determined using the automatic cell-counting apparatus sold by Bayer Diagnostic under the trade designation Technicon HIE and the different leucocytes per μl are differentiated. In each test, 2 control groups (nebulization with physiological saline solution or with LPS solution) are included. Substances having anti-inflammatory activity, particularly those which affect TNFα release or the function of the neutrophilic granulocytes, inhibit the infiltration of leucocytes. The inhibition of infiltration is determined by the comparison of the number of infiltrated neutrophils in untreated experimental animals (with and without LPS provocation).
For intrapulmonary administration, the trachea of the animals is opened under anaesthesia with 40 mg/kg i.p. of pentobarbital sodium, 3% strength, 1.3 ml/kg, a 7 cm-long PVC catheter is tied in and the test substances are administered intrapulmonarily in powder form (mixed with lactose to 20 mg/kg) by means of a syringe 2 hours before LPS provocation. The intrapulmonary administration of Example 1 in doses of 1, 3 and 10 mg/kg inhibits LPS-induced neutrophilia in a dose-dependent manner (43%, 65% and 100%).

For data set [3], the system named is LPS-induced pulmonary neutrophilia. Briefly: LPS-induced pulmonary neutrophilia in domestic pigs. The note with it: intrapulmonary administration of 10 mg/animal. The format is in vivo. As for the experimental part: Pulmonary neutrophilia can be induced with LPS in domestic pigs in a manner similar to that in the ferret. The animals are anaesthetized with pentobarbital 10 mg/kg i.v., and intubated. Using a bronchoscope, a partial bronchoalveolar lavage is carried out in order to determine the proportion of neutrophilic granulocytes under physiological conditions. The test substance is then administered and the animals inhale an ultrasonically nebulized aerosol of 0.03% strength LPS (lipopolysaccharide) solution (additionally 0.1% hydroxylamine in PBS) through the tracheal tube for 20 min. The inhaled LPS induces a reactive inflammation of the airways and neutrophilic granulocytes infiltrate on a huge scale. The neutrophilia achieves its maximum 4 to 6 hours after LPS exposure. After 6 hours, the bronchoalveolar lavage is repeated and the increase in the neutrophil count is determined arithmetically.

Molecules are shown by their SMILES.

Broadly, the melting point is the temperature, or range, at which the solid turns liquid. `O=C(Nc1c(Cl)cccc1Cl)C(=O)c1cn(Cc2ccc(F)cc2)c2ccc(O)cc12`: the melting point fell in the range of 216 to 218 °C.
Consider `O=C(Nc1c(Cl)cc(C(F)(F)F)cc1Cl)C(=O)c1cn(Cc2ccc(F)cc2)c2ccc(O)cc12`, for which the melting point was in the range of 199 to 201 °C.
Still for that read-out and setting: with `O=C(Nc1c(Cl)cc(OC(F)(F)F)cc1Cl)C(=O)c1cn(Cc2ccc(F)cc2)c2ccc(O)cc12` the figure was 176 to 178 °C; with `O=C(Nc1c(Cl)cncc1Cl)C(=O)c1cn(Cc2ccc(F)cc2)c2cc(O)ccc12`, 212 to 213 °C; with `COc1ccc(Cn2cc(C(=O)Nc3c(Cl)cncc3Cl)c3cc(O)ccc32)cc1`, 239 to 241 °C.
Still for that read-out and setting: with `O=C(Nc1c(Cl)cncc1Cl)C(=O)c1cn(Cc2c(F)cccc2F)c2ccc(O)cc12` the figure was 266 to 268 °C; with `CCCn1cc(C(=O)C(=O)Nc2c(Cl)cncc2Cl)c2cc(O)ccc21`, 280 to 282 °C; with `CC(C)n1cc(C(=O)C(=O)Nc2c(Cl)cncc2Cl)c2cc(O)ccc21`, 245 to 247 °C.
The same measure, in the same setting: with `O=C(Nc1c(Cl)cncc1Cl)C(=O)c1cn(CC2CCCC2)c2ccc(O)cc12` the figure was 246 to 248 °C.
As a reminder, the IC50 is the concentration needed to halve the response being measured. As for `O=C(Nc1c(Cl)cncc1Cl)C(=O)c1cn(Cc2ccc(F)cc2)c2ccc(O)cc12` [Example 1, N-(3,5-Dichloropyridin-4-yl)-2-[1-(4-fluorobenzyl)-5-hydroxyindol-3-yl]-2-oxoacetamide], the 50% inhibitory concentration (IC50) in data set [1] amounted to 0.8 µM. Moreover, the “inhibition of neutrophilia in the BAL” value in data set [2] (1 mg/kg i.p.) came to 18%; in data set [2] (3 mg/kg i.p.), 64%; in data set [2] (10 mg/kg i.p.), 78%. For the same molecule, the “inhibition of LPS-induced neutrophilia” value in data set [2] (1 mg/kg intrapulmonary) is reported as 43%; in data set [2] (3 mg/kg intrapulmonary), 65%; in data set [2] (10 mg/kg intrapulmonary) it was 100%. Besides, the “ID50, inhibition of LPS-induced neutrophilia in BAL” value in data set [2] (i.p., 2 hours before LPS provocation) was determined as 2.4 mg/kg. Also, in data set [2] (intrapulmonary administration (printed i.palm.)), the “ID50, inhibition of LPS-induced neutrophilia” value is listed as 1.65 mg/kg. The “inhibition of LPS-induced pulmonary neutrophilia” value in data set [3] is given as 51%.
Regarding `COc1ccc(C(=O)Nc2c(Cl)cncc2Cl)cc1OC1CCCC1` [RPR-73401, reference compound], the “inhibition of neutrophilia in the BAL” value in data set [2] (1 mg/kg i.p.) was found to be 49%.
As to `COc1ccc([C@]2(C#N)CC[C@@H](C(=O)O)CC2)cc1OC1CCCC1` [SB 207499, reference compound], half-maximal inhibition in data set [1] (IC50) required 7 µM.

The values above are taken from US6613794B2, “Hydroxyindoles, their use as inhibitors of phosphodiesterase 4 and processes for their preparation” (Arzneimittelwerk Dresden GmbH, priority 1998, dated 2003).
